This is an account of results in US6583309B1 (University of Medicine and Dentistry of New Jersey, priority 1999, dated 2003).

Read-outs that look alike come from different tables or passages of the source.

The target of assay [1] is TAR RNA. To be noted: TAT binding to TAR RNA, Dingwall et al. (1990); cited from earlier work.
In assay [2] the test system is TAR-TAT complex formation in HL3T1 cells. In words: In vivo assay: inhibition of TAR-TAT complex formation in HL3T1 cells (HIV-1 LTR promoter, CAT reporter). Format: cell-based. To be noted: compounds of formula V transfected into HL3T1 cells with pSV2Tat and pAL, CAT and luciferase read after 48 hour, read-out: Kd (nM), binding constants. The procedure: Binding of compounds of formula I and V to TAR RNA was measured by evaluating their inhibition of TAR-TAT complex formation in the presence of increasing levels of the compound to be tested. The compounds of formula I were tested in an in vitro assay; the compounds of formula V were tested in an in vivo assay.
Cells were grown in 2 mL of Dulbecco's modified Eagle medium (DMEM) supplemented with 10% fetal calf serum in 60 mm dishes at 37° C. in 5% CO2 in a tissue culture incubator. Cells were refreshed by 2 mL DMEM before transfection. Transfection was started by dropwise addition of 250 μL 2×HeBS (Hepes-buffered saline) and then keeping at room temperature for 10 minutes. Approximately 10 μg of plasmids (pSV2Tat and pAL) and increasing amounts of the Compounds DV, DW, DX or DY were transfected in the presence of CaCl2 (final concentration 125 mM) and the cells were incubated for 4 hour at 37° C. in a tissue culture incubator. The medium was then discarded and the cells were subjected to glycerol (1.5 mL of 15%) shock for 45 seconds. Finally the cells were washed twice with PBS (5 mL) and were grown in 3 mL DMEM. The cells were harvested after 48 hour post-transfection with changing with fresh DMEM at 24 hours and lysed in reporter lysis buffer (Promega). Aliquots were used for CAT and luciferase assays. Both activities were normalized to protein concentration determined by using a modified Bradford assay (Bio-Rad).

Assay [3] addresses TAR RNA. Put plainly: In vitro binding of resin-bound compounds to TAR RNA (OD260 of unbound RNA). On the set-up: species or system HIV. To be noted: in vitro assay; compounds of formula I on TentaGel beads incubated with TAR RNA overnight at 4° C. in TK buffer; read-out: Kd (nM), binding constants. In short, it runs like this:
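Ten beads of TentaGel-bound compound in TK buffer were incubated overnight at 4 °C with T7-transcribed 29-residue TAR RNA ([…]). Unbound RNA in the supernatant was quantified by OD260. KD was calculated from equilibrium RNA concentrations assuming simple bimolecular binding.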

Consider “TAT: virally encoded HIV trans-acting regulatory protein that specifically recognizes TAR RNA”, for which the Kd (commonly the concentration at which binding is half-saturated) at TAR RNA [1] was 12 nM.
In the case of `N=C(N)NCCC[C@@H](CNC(=O)N[C@@H](CCCCN)CNC(=O)N[C@H](CN)CCCCN)NC(N)=O` [Compound DW, 1-{5-Amino-1-[3-(5-amino-1-aminomethyl-pentyl)-ureidomethyl]-pentyl}-3-(5-guanidino-2-ureido-pentyl)-urea], the Kd in assay [2] worked out at 50 nM.
For `N=C(N)NCCC[C@@H](CNC(=O)N[C@@H](CCCNC(=N)N)CNC(=O)N[C@H](CN)CCCCN)NC(N)=O`, the Kd in assay [2] turned out to be 500 nM.
Same read-out and setting: the figure for `N=C(N)NCCC[C@@H](CNC(=O)N[C@@H](CCCCN)CNC(=O)NCCN)NC(N)=O` [Compound DY] is 150 nM.
In the case of `NCCCC[C@H](N)COC(=O)N(CCCCN)CC(=O)N[C@@H](CCCCN)COC(N)=O` [Compound CS, Carbamic acid 6-amino-2-{2-[(4-amino-butyl)-(2,6-diamino-hexyloxycarbonyl)-amino]-acetylamino}-hexyl ester], the Kd at TAR RNA [3] was found to be 491 nM.
Regarding `NCCCCCNCC(=O)N[C@@H](CCCCN)C(=O)N[C@H](CCCCN)COC(N)=O` [Compound BX, Carbamic acid 6-amino-2-{6-amino-2-[2-(5-amino-pentylamino)-acetylamino]-hexanoylamino}-hexyl ester], the Kd on TAR RNA [3] was 202 nM.
As for `NCCCC[C@@H](COC(N)=O)NC(=O)CN(CCCCN)C(=O)OC[C@H](N)CCC(N)=O` [Compound DA, Carbamic acid 6-amino-2-{2-[(4-amino-butyl)-(2-amino-4-carbamoyl-butoxycarbonyl)-amino]-acetylamino}-hexyl ester], the Kd at TAR RNA [3] turned out to be 301 nM.
Take `NCCCC[C@@H](N)COC(=O)N(CCCCN)CC(=O)N[C@@H](CCCCN)COC(N)=O` [Compound CT, Carbamic acid 6-amino-2-{2-[(4-amino-butyl)-(2,6-diamino-hexyloxycarbonyl)-amino]-acetylamino}-hexyl ester]: the Kd at TAR RNA [3] was determined as 147 nM.
For the compound `NCCCCNCC(=O)N[C@H](CCCCN)COC(=O)N[C@@H](CCCCN)COC(N)=O` [Compound CG, Carbamic acid 6-amino-2-{6-amino-2-[2-(4-amino-butylamino)-acetylamino]-hexyloxycarbonylamino}-hexyl ester], the Kd on TAR RNA [3] amounted to 603 nM.
For `NCCCC[C@@H](N)COC(=O)N[C@@H](CCCCN)C(=O)N[C@H](CCCCN)COC(N)=O` [Compound BU, Carbamic acid 6-amino-2-[6-amino-2-(2,6-diamino-hexyloxycarbonylamino)-hexanoylamino]-hexyl ester], the Kd on TAR RNA [3] came out at 1420 nM.
On the same count and under the same terms, with `NCCCCCN(CC(=O)N[C@H](CCCCN)COC(N)=O)C(=O)OC[C@H](N)CCC(N)=O` [Compound BJ, Carbamic acid 6-amino-2-{2-[(2-amino-4-carbamoyl-butoxycarbonyl)-(5-amino-pentyl)-amino]-acetylamino}-hexyl ester] the figure was 202 nM; with `NCCCC[C@H](COC(N)=O)NC(=O)CN(CCCCN)C(=O)[C@H](N)CCCCN` [Compound AV, Carbamic acid 6-amino-2-{2-[(4-amino-butyl)-(2,6-diamino-hexanoyl)-amino]-acetylamino}-hexyl ester], 325 nM.
Same read-out and setting: the figure for `N=C(N)NCCC[C@H](N)COC(=O)N[C@@H](CCCCN)COC(=O)N[C@@H](CCCCN)COC(N)=O` [Compound CQ, Carbamic acid 6-amino-2-[6-amino-2-(2-amino-5-guanidino-pentyloxycarbonylamino)-hexyloxycarbonylamino]-hexyl ester] is 2350 nM.
Take `NCCCCCCCN(CC(=O)N[C@@H](CCCCN)COC(N)=O)C(=O)CNCCCCCN` [Compound DO, Carbamic acid 6-amino-2-(2-{(7-amino-heptyl)-[2-(5-amino-pentylamino)-acetyl]-amino}-acetylamino)-hexyl ester]: on TAR RNA [3], the Kd worked out at 1040 nM.
As to `NCCCCCCCN(CC(=O)N[C@H](CCCCN)COC(N)=O)C(=O)CNCCCCN` [Compound BQ, Carbamic acid 6-amino-2-{2-[[2-(4-amino-butylamino)-acetyl]-(7-amino-heptyl)-amino]-acetylamino}-hexyl ester], the Kd on TAR RNA [3] was 235 nM.
On the same count and under the same terms, the figure for `NCCCC[C@H](COC(N)=O)NC(=O)CN(CCCCN)C(=O)OC[C@H](N)CCC(N)=O` [Compound BA, Carbamic acid 6-amino-2-{2-[(4-amino-butyl)-(2-amino-4-carbamoyl-butoxycarbonyl)-amino]-acetylamino}-hexyl ester] is 460 nM.
Regarding `N=C(N)NCCC[C@@H](CNC(=O)N[C@@H](CCCCN)CNC(=O)N[C@H](CN)CCCNC(=N)N)NC(N)=O` [Compound DV, 1-{5-Amino-1-[3-(1-aminomethyl-4-guanidino-butyl)-ureidomethyl]-pentyl}-3-(5-guanidino-2-ureido-pentyl)-urea], in assay [2], the Kd came to 500 nM.
Consider `NCCCC[C@H](COC(N)=O)NC(=O)[C@H](CCCCN)NC(=O)[C@H](N)CCCCN` [Compound BW, Carbamic acid 6-amino-2-[6-amino-2-(2,6-diamino-hexanoylamino)-hexanoylamino]-hexyl ester], for which the Kd on TAR RNA [3] worked out at 678 nM.
`N=C(N)NCCC[C@H](N)COC(=O)N(CCCCCN)CC(=O)N[C@H](CCCCN)COC(N)=O` [Compound BI, Carbamic acid 6-amino-2-{2-[(2-amino-5guanidino-pentyloxycarbonyl)-(5-amino-pentyl)-amino]-acetylamino}-hexyl ester]: the Kd on TAR RNA [3] was 202 nM.
Regarding `NCCCCCN(CC(=O)N[C@H](CCCCN)COC(N)=O)C(=O)OC[C@@H](N)CCCCN` [Compound BB, Carbamic acid 6-amino-2-{2-[(5-amino-pentyl)-(2,6-diamino-hexyloxycarbonyl)-amino]-acetylamino}-hexyl ester], the Kd on TAR RNA [3] amounted to 256 nM.
Still for that read-out and setting: the figure for `NCCCC[C@H](COC(N)=O)NC(=O)[C@H](CCCCN)NC(=O)OC[C@H](N)CCC(N)=O` [Compound DU, Carbamic acid 6-amino-2-[6-amino-2-(2-amino-4-carbamoyl-butoxycarbonylamino)-hexanoylamino]-hexyl ester] is 639 nM.
For the compound `N=C(N)NCCC[C@H](N)COC(=O)N(CCCCN)CC(=O)N[C@@H](CCCCN)COC(N)=O` [Compound CZ, Carbamic acid 6-amino-2-{2-[(4-amino-butyl)-(2-amino-5-guanidino-pentyloxycarbonyl)-amino]-acetylamino}-hexyl ester], the Kd on TAR RNA [3] came to 183 nM.
On to `NCCCCCCCN(CC(=O)N[C@H](CCCCN)COC(N)=O)C(=O)OC[C@H](N)CCCCN` [Compound BL, Carbamic acid 6-amino-2-{2-[(7-amino-heptyl)-(2,6-diamino-hexyloxycarbonyl)-amino]-acetylamino}-hexyl ester], for which the Kd at TAR RNA [3] worked out at 718 nM.
Still for that read-out and setting: the figure for `NCCCCCN(CC(=O)N[C@@H](CCCCN)COC(N)=O)C(=O)[C@H](N)CCCCN` [Compound DE, Carbamic acid 6-amino-2-{2-[(5-amino-pentyl)-(2,6-diamino-hexanoyl)-amino]-acetylamino}-hexyl ester] is 120 nM.
As to `NCCCCCCCNCC(=O)N[C@@H](CCCCN)COC(=O)N[C@@H](CCCCN)COC(N)=O` [Compound CO, Carbamic acid 6-amino-2-{6-amino-2-[2-(7-amino-heptylamino)-acetylamino]-hexyloxycarbonylamino}-hexyl ester], the Kd on TAR RNA [3] is 147 nM.
The same measure, in the same setting: the figure for `NCCCCCCCN(CC(=O)N[C@H](CCCCN)COC(N)=O)C(=O)[C@H](N)CCCCN` [Compound BN, Carbamic acid 6-amino-2-{2-[(7-amino-heptyl)-(2,6-diamino-hexanoyl)-amino]-acetylamino}-hexyl ester] is 3150 nM; for `NCCCC[C@H](N)COC(=O)N[C@H](CCCCN)COC(=O)N[C@@H](CCCCN)COC(N)=O` [Compound CA, Carbamic acid 6-amino-2-[6-amino-2-(2,6-diamino-hexyloxycarbonylamino)-hexyloxycarbonylamino]-hexyl ester] it is 460 nM.
For `NCCCCCN(CC(=O)N[C@H](CCCCN)COC(N)=O)C(=O)[C@@H](N)CCCCN` [Compound BD, Carbamic acid 6-amino-2-{2-[(5-amino-pentyl)-(2,6-diamino-hexanoyl)-amino]-acetylamino}-hexyl ester], the Kd at TAR RNA [3] was found to be 235 nM.
